The target in the assay is Protein cereblon (Homo sapiens, UniProt Q96SW2). The assay is described as follows: Bioluminescence Resonance Energy Transfer (BRET). As for the experimental part: 2 uL of 10 uM CRBN tracer (diluted 1:5 in Tracer Dilution Buffer) was added to each well. Plates were centrifuged at 320 g for 1 min at room temperature. […] Plates were shaken for 2 minutes on a microplate shaker to mix compounds. Plates were centrifuged at 320 g for 1 min at room temperature, and subsequently incubated for 2 hours at 37 C.After incubation, plates were allowed to cool to room temperature for 15 minutes. […] Plates were read on a CLARIOstar microplate reader (BMG LabTech), measuring at 450 nm (donor emission) and 610 nm (acceptor emission).
A general note: Bioluminescence resonance energy transfer reports proximity on the nanometre scale.

SMILES strings stand for the structures. pEC50: −log10 of the molar value.

Chain of Protein cereblon (Q96SW2 whole entry): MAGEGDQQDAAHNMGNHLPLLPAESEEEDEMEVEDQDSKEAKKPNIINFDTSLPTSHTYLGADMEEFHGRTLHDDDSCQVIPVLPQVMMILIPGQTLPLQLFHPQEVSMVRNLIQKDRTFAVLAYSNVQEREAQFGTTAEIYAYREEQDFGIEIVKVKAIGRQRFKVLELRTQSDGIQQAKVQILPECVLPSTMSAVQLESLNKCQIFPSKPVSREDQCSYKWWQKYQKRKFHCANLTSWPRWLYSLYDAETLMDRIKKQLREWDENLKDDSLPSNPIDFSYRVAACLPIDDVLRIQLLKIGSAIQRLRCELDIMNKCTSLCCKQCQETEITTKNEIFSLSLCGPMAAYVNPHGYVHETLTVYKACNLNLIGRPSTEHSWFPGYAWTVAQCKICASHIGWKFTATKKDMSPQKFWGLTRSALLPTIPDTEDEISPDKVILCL

Compound `N#CC1(C2CN([C@H]3CCCC[C@@H]3Oc3ccc4c(c3)CN(C3CCC(=O)NC3=O)C4=O)C2)CCC1` (stereo partly specified) [US20240287037, Example 23] had a pEC50 of 7.55.

By pEC50 is commonly meant the negative decadic logarithm of the EC50, by convention in mol/L. Low values mean a large EC50, high ones a small EC50.

For the origin of these results see BindingDB's records for patent US20240287037 (Plexium, 2024).
